These results are taken from article PMC11466185, “Mechanisms and efficacy of small molecule latency-promoting agents to inhibit HIV reactivation ex vivo” (JCI Insight, 2024).

Series [1] concerns PBMCs. Nature of the series: Cell viability by trypan blue staining after 24 hours. It counts as cell-based, human. The arrangement: key to Viability (dose-response): % of activated DMSO control viability. Conditions: for Viability (dose-response): 1 participant per drug, in % (unit assumed); for Cell viability (in words): initial screening concentrations, Figure 1A. The procedure: Figure 1 Screening of candidate LPAs by measuring the change in multiply spliced HIV transcripts after activation. Each drug was tested in PBMCs from 2 ART-suppressed study participants (denoted in the legend by varying symbol shapes). PBMCs were aliquoted into wells at 6 × 10^6 cells/well. After activation, the cells were cultured with antiretrovirals in the presence of individual drugs in DMSO or DMSO alone as control. All conditions were tested in the presence of CD3/28 T cell–activating beads, except for the unactivated DMSO condition. (A) After 24 hours, the viability was measured by trypan blue staining and then normalized to the levels of the activated DMSO (% of activated DMSO). Bars indicate medians. (B) Total cellular RNA was extracted, and the levels of multiply spliced HIV transcripts (TatRev) were measured by RT-ddPCR, normalized to 1 μg of total cellular RNA, and expressed as a percentage of the activated DMSO control (% of activated DMSO). RT-dd, reverse transcription digital droplet; vRNA, viral RNA; HAT, histone acetyltransferase.
(§1) For quantification of cell-associated HIV transcripts, PBMCs were harvested either after 24 hours or after 6 days. The cell viabilities were measured by trypan blue staining; then the cells were pelleted by centrifuging at 300g for 6 minutes and stored at –80°C. For quantification of virion-associated HIV RNA, cell culture supernatant was collected from 6 × 10^6 PBMCs that were treated and activated for 6 days as described above. Residual cells and cellular debris were subsequently removed from the supernatant by differential centrifugation (300g for 6 minutes, then 20,000g for 10 minutes), and the supernatant was stored at –80°C.

The subject of series [2] is PBMCs. Type of series: cell-based, human. The following applies: 6 days after αCD3/28 activation, each row one participant. The procedure: Next, we evaluated the ability of the candidate LPAs to sustain the inhibitory effects during a prolonged ex vivo culture. To this end, PBMCs were cultured in the presence of individual drugs in DMSO or in DMSO alone as control, activated (anti-CD3/CD28), and harvested after 6 days. […] However, we decided to test the drug on day 6 because extra cells were available from some study participants.
as §1
A) After six days, the viability was measured by trypan blue staining and then normalized to the levels of the activated DMSO (% of activated DMSO). Bars indicate medians and different colors indicate individual study participants. B-F) Each drug was tested in PBMCs from at least six ART-suppressed study participants (except for KRIBB11, n=5) and the PBMCs were aliquoted into wells at 6x10^6 cells/well. After activation, the cells were cultured with antiretrovirals in the presence of individual drugs in DMSO or DMSO alone as control. After six days, total RNA was extracted and the progression through different stages of HIV transcription was (1 picture or pasted object on this page, not shown here)

Values joined by “and” are separate entries in the source; they are usually repeats but may differ in a detail not shown here. Identical values can stand only once. Like-named read-outs stand apart in the source and are kept apart here.

`CCc1cnn2c(NCc3ccc[n+]([O-])c3)cc(N3CCCC[C@H]3CCO)nc12` [dinaciclib]: the “Viability (dose-response)” value in the series with PBMCs [1] (dose 1 nM) was found to be 89.474; with PBMCs [1] (dose 4 nM), 89.815; in the series on PBMCs [1] (dose 8 nM) it was 89.726. The “Viability (Fig 1A)” value in the series on PBMCs [1] (study participant 150a) is recorded as 96.36 % of activated DMSO; in the series with PBMCs [1] (study participant 152) it was 99.43 % of activated DMSO.
Regarding `CO[C@H]([C@@H](C)[C@H]1O[C@]1(C)C[C@H](C)/C=C/C=C(\C)[C@H]1O[C@@H](CC(=O)O)CC[C@@H]1C)[C@@H](C)O` [herboxidiene], the “Viability (Fig 1A)” value in the series on PBMCs [1] (study participant 150a) was 99.57 % of activated DMSO; with PBMCs [1] (study participant 2147b), 98.97 % of activated DMSO. In addition, the “Cell viability (DMSO αCD3/28 = 100)” value with PBMCs [2] (5nM) is 119.6 and 123.7 and 95.53 and 100.64 and 118.06 and 114.9 and 85 and 106.6 and 119.5.
For the molecule `CC(C)[C@]12O[C@H]1[C@@H]1O[C@]13[C@]1(O[C@H]1C[C@H]1C4=C(CC[C@@]13C)C(=O)OC4)[C@@H]2O` [triptolide], the “Cell viability (in words)” value with PBMCs [1] was “impact on cell viability”. Further, the “Viability (Fig 1A)” value in the series with PBMCs [1] (study participant 150b) was 96.4057 % of activated DMSO; with PBMCs [1] (study participant 2147b), 91.51 % of activated DMSO. For the same molecule, the “Cell viability (DMSO αCD3/28 = 100)” value with PBMCs [2] (25-50nM) was 81.87 and 92.51 and 90.83 and 106.88 and 80.32 and 104.1.
Turning to `CC(=O)N[C@@H]1CCC[C@H](C(=O)Nc2cc(-c3cnn4c3CC(C)(C)C4)c(Cl)cn2)C1` [AZD4573], the “Viability (dose-response)” value is listed as 74.75 in the series on PBMCs [1] (dose 1 nM), 63.616 with PBMCs [1] (dose 8 nM) and 68.369 with PBMCs [1] (dose 20 nM). Also, the “Viability (Fig 1A)” value in the series on PBMCs [1] (study participant 150a) is on record as 106.07 % of activated DMSO; with PBMCs [1] (study participant 152), 97.45 % of activated DMSO. Further, the “Cell viability (DMSO αCD3/28 = 100)” value in the series on PBMCs [2] (8nM) was 123.6 and 120.68 and 105.88 and 140.1 and 117.5 and 116.7 and 104.1.
Regarding `C=CCNC1=C2C[C@@H](C)C[C@H](OC)[C@H](O)[C@@H](C)/C=C(\C)[C@H](OC(N)=O)[C@@H](OC)/C=C\C=C(/C)C(=O)NC(=CC1=O)C2=O` [tanespimycin], the results for the “Viability (Fig 1A)” value in the series with PBMCs [1] (study participant 150b) and in the series on PBMCs [1] (study participant 2147b) were 104.931 % of activated DMSO and 92.78 % of activated DMSO, respectively. In addition, the “Cell viability (DMSO αCD3/28 = 100)” value in the series with PBMCs [2] (5μM) was 119.92 and 93.07 and 93.65 and 100.43 and 91.95 and 100.9 and 116.6.
On to `CNc1ccc([N+](=O)[O-])c(Nc2ccc3[nH]ncc3c2)n1` [KRIBB11], for which the “Viability (Fig 1A)” value with PBMCs [1] (study participant 150a) was 102.97 % of activated DMSO; with PBMCs [1] (study participant 152), 101.83 % of activated DMSO.
Turning to `CN1CC[C@H](c2c(O)cc(O)c3c(=O)cc(-c4ccccc4Cl)oc23)[C@H](O)C1` [alvocidib], the “Viability (dose-response)” value with PBMCs [1] (dose 4 nM) came out at 81; in the series with PBMCs [1] (dose 10 nM) it was 85; in the series with PBMCs [1] (dose 40 nM) it was 95.181; in the series on PBMCs [1] (dose 100 nM), 77. For the same molecule, in the series on PBMCs [1] (study participant 150a), the “Viability (Fig 1A)” value was 98.54 % of activated DMSO.
Regarding pladienolide B, the entries for the “Viability (dose-response)” value with PBMCs [1] (dose 0.1 nM), in the series with PBMCs [1] (dose 1 nM) and in the series with PBMCs [1] (dose 10 nM) were 74.768, 75.444 and 68.259, respectively. For the same molecule, in the series with PBMCs [1], the “Cell viability (in words)” value is reported as “impact on cell viability”. Besides, the “Viability (Fig 1A)” value with PBMCs [1] (study participant 150a) was 75.5 % of activated DMSO; with PBMCs [1] (study participant 152), 79.98 % of activated DMSO. Also, the “Cell viability (DMSO αCD3/28 = 100)” value in the series on PBMCs [2] (10nM) was 115.2 and 113.39 and 90.65 and 128.6 and 121.6 and 94.2 and 112.8.
Consider `O=c1c(O)c(-c2ccc(O)c(O)c2)oc2cc(O)cc(O)c12` [quercetin], for which the “Viability (dose-response)” value came out at 87.619 in the series with PBMCs [1] (dose 5 µM) and 77.686 in the series on PBMCs [1] (dose 10 µM). For the same molecule, the “Viability (Fig 1A)” value in the series on PBMCs [1] (study participant 150a) was 100.02 % of activated DMSO; in the series on PBMCs [1] (study participant 152), 90.16 % of activated DMSO. Besides, the “Cell viability (DMSO αCD3/28 = 100)” value in the series on PBMCs [2] (5μM) was 74.1 and 98.05 and 112.6 and 106 and 105.8.
As for `COc1ccc(-c2cc(=O)c3c(O)cc(O)c(-c4cc(-c5cc(=O)c6c(O)cc(O)cc6o5)ccc4OC)c3o2)cc1` [isoginkgetin], the “Cell viability (in words)” value in the series with PBMCs [1] is “impact on cell viability”. Further, the figures for the “Viability (Fig 1A)” value with PBMCs [1] (study participant 150a) and in the series on PBMCs [1] (study participant 152) were 88.97 % of activated DMSO and 84.74 % of activated DMSO, respectively. Further, the “Cell viability (DMSO αCD3/28 = 100)” value in the series on PBMCs [2] (25μM) is 120.3 and 106.36 and 93.99 and 112.22 and 91.65 and 74.9 and 87.5 and 124.6.
Turning to `N#CC[C@H](C1CCCC1)n1cc(-c2ncnc3[nH]ccc23)cn1` [ruxolitinib], the “Viability (dose-response)” value is listed as 90.244 in the series on PBMCs [1] (dose 0.4 µM), 87.333 in the series with PBMCs [1] (dose 1 µM), 92.053 in the series with PBMCs [1] (dose 4 µM) and 89.32 with PBMCs [1] (dose 10 µM). In addition, the “Viability (Fig 1A)” value is recorded as 95.89 % of activated DMSO in the series with PBMCs [1] (study participant 150a) and 102.01 % of activated DMSO in the series on PBMCs [1] (study participant 152).
